Experiments:
[1] = Sulforhodamine B (SRB) cytotoxicity assay; details: human, A172 glioblastoma cells
Method: (§1) Normalized % viabilities are plotted against log concentration. Error bars show the percent coefficient of variation. […] Mann-Whitney test was used to generate the p-value. The DNA spread assay is the representation of two independently repeated experiments. Source Data are provided as a Source Data file.
(§2) Cells were plated in 96-well plates, treated as designated in reduced 5% FBS and fixed with trichloroacetic acid after 72 h, as previously described by[43]. […] Colorimetric or fluorescence analysis was performed in a FlexStation 3, using SoftMax Pro 7.0, Molecular Devices. Normalized graphs were generated with Prism 8 software, non-linear 4-parameter data fitting was performed for IC50 calculation.

A172 glioblastoma cells = test: Sulforhodamine B (SRB) cytotoxicity assay; details: Homo sapiens, A 172, 72 h
Method: as §1, §2

[2] = Sulforhodamine B (SRB) cytotoxicity assay; format: cell-based, human; details: human; for viability at 72 h, 25 µM: log concentration μM 1.39794
Method: (§3) Fig. 6 Selective inhibition of PARG by xanthine derivative JA2131. a Clonogenic survival assays of PC3, MDA-MB-231, and MCF-7 cells treated with PARGi. Cells were treated with either DMSO or 10 µM JA2131 for 2 h, irradiated with 3 Gy (MDA-MB-231 and MCF-7), 7 Gy (PC3) IR and grown for ~2 weeks, then colonies were fixed with methanol and stained with crystal violet. The results of three independent experiments are shown. Error bars = the standard error of the mean (SEM). b dose-response of JA2131 in MDA-MB-231 cells with and without IR. Cells were treated with designated concentrations of JA2131 for 2 h and then either left untreated or exposed to 3 Gy IR and allowed to recover for 1 h before lysis. Total protein was immunoblotted with anti-PAR antibody (upper panel), stripped and reprobed with anti-PCNA as a loading control. c MDA-MB-231 cells with stable scrambled shRNA (WT) or stable PARG shRNA, knockdown (KD), were treated with 5 μM JA2131 for 2 h, lysed and then total lysates were immunoblotted for anti-PAR (upper panel) followed by anti-PARG (upper middle panel), anti-PARP1 (lower middle panel) and anti-actin (bottom panel) antibody. […] Stable cells with scramble shRNA (control) and shPARG (PARG-KD) cells were treated with an increasing concentration of JA2131 for growth inhibitory IC50 determination. The data was normalized against 100% survival at the lowest inhibitor concentration. Error bars show the percent coefficient of variation. Equivalent concentrations of DMSO were used as a negative control. e The cytotoxicity of JA2131 along with PDD, Veliparib and Doxorubicin against MRC-5 cells. Error bars show the percent coefficient of variation. f CETSA for in-cell JA2131 target engagement. Normalized anti-PARG western blot intensities of three independent experiments were fitted as above and the estimated aggregation temperature (Tagg) is shown in the tabulated insert. Source Data are provided as a Source Data file.

[3] = system: MDA-MB-231 control cells (scramble shRNA); test: Sulforhodamine B (SRB) cytotoxicity assay; format: cell-based, human; details: 72 h
Method: as §3

MRC-5 cells = test: Sulforhodamine B (SRB) cytotoxicity assay; format: cell-based, human; details: Homo sapiens, MRC5, 72 h
Method: as §3

MDA-MB-231 PARG-KD cells = test: Sulforhodamine B (SRB) cytotoxicity assay; format: cell-based, human
Method: as §3

PC3 cells = test: Sulforhodamine B (SRB) cytotoxicity assay; details: Homo sapiens, PC-3, 72 h
PCNA in PC3 cells = target: T1, PCNA in PC3 cells (Homo sapiens, UniProt P12004); test: Cellular thermal shift assay (CETSA), control protein; format: cell-based; details: 10 μM JA2131
T1 construct: endogenous in cells; host or cells: PC3
T1 sequence (P12004 whole entry): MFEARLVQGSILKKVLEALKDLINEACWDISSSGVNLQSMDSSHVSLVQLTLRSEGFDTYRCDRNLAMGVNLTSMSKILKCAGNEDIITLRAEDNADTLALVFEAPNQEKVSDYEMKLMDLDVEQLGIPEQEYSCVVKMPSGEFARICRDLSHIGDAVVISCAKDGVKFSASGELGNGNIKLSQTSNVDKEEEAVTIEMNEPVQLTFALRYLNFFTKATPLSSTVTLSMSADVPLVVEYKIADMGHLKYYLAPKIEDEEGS
Method: (§4) CETSA was performed as described by Molina et al.[44]. Briefly, PC3 cells were treated with 10 μM JA2131 or an equivalent volume of DMSO for 2 h, washed three times with PBS and extracted for total cell lysate. Ten percent glycerol was added to the samples before subjecting to heat. […] Then, samples were centrifuged at 14,000 rpm for 20 min at 4 °C. Supernatants were carefully removed and analyzed by western blotting analysis.
(§5) Supplementary Fig. 14: Representative CETSA western blots for PARG and PCNA. PC3 cells
(§6) treated with 10 µM JA2131 or DMSO were temperature shocked as described in Materials and […]
(§7) PCNA antibody. Anti -Histone H3 was used as loading control.
(§8) (1 picture or pasted object on this page, not shown here)

PARG in PC3 cells = target: T2, PARG in PC3 cells (Homo sapiens, UniProt Q86W56); test: Cellular thermal shift assay (CETSA); format: cell-based; details: 10 μM JA2131
T2 construct: endogenous in cells; host or cells: PC3
T2 sequence (Q86W56 whole entry): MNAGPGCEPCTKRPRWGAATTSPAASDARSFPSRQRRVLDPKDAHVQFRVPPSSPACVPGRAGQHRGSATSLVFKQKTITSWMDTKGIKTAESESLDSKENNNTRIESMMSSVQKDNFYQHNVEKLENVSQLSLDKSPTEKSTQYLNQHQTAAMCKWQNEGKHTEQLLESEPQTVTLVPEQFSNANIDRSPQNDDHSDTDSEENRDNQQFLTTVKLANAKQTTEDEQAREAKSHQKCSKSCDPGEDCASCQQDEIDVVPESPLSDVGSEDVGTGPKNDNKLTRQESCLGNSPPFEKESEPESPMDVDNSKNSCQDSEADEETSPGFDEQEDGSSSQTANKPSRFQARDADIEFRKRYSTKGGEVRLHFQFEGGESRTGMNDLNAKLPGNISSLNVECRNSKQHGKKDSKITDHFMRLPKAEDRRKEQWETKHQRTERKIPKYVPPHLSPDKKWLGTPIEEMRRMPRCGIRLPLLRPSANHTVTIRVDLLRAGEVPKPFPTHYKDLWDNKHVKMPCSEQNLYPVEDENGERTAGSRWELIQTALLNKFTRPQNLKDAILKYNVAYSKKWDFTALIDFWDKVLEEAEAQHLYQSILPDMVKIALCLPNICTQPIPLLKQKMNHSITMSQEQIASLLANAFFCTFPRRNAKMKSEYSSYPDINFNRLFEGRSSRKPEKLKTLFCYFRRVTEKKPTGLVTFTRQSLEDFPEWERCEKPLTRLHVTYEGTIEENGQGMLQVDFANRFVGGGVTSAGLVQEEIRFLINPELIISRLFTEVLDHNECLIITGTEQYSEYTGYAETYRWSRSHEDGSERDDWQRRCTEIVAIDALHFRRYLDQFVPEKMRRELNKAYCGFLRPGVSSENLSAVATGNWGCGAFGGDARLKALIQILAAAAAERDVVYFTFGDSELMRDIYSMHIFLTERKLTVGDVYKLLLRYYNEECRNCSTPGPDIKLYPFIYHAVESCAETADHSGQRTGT
Method: as §4, §5, §6, §7, §8

Cn1c(=S)c2[nH]c(SCCN3CCOCC3)nc2n(C)c1=O [JA2131]
viability at 72 h, 0.244 µM [1]: 100%
viability at 72 h, 0.488 µM [1]: 98.3%
viability at 72 h, 0.977 µM [1]: 99.4%
viability at 72 h, 1.95 µM [1]: 101%
viability at 72 h, 3.91 µM [1]: 104%
viability at 72 h, 7.82 µM [1]: 96.7%
viability at 72 h, 15.6 µM [1]: 95.9%
viability at 72 h, 31.3 µM [1]: 78.7%
viability at 72 h, 62.5 µM [1]: 53.3%
viability at 72 h, 125 µM [1]: 16.6%
viability at 72 h, 250 µM [1]: 14.4%
viability at 72 h, 500 µM [1]: 13.5%
IC50 (A172 glioblastoma cells): 55.3 ± 7.9 µM
viability at 72 h, 25 µM ([2]; MDA-MB-231 cells with stable PARG shRNA knockdown (PARG-KD), 72 h): 80.4%
viability at 72 h, 50 µM ([2]; MDA-MB-231 cells with stable PARG shRNA knockdown (PARG-KD), log concentration μM 1.69897, 72 h): 70.2%
viability at 72 h, 25 µM ([2]; MDA-MB-231 control cells with stable scramble shRNA): 17%
viability at 72 h, 1.95 µM ([2]; MRC-5 cells, log [concentration] μM 0.29): 98.4%
viability at 72 h, 3.89 µM ([2]; MRC-5 cells, log [concentration] μM 0.59): 99.3%
viability at 72 h, 7.76 µM ([2]; MRC-5 cells, log [concentration] μM 0.89): 98.5%
viability at 72 h, 15.5 µM ([2]; MRC-5 cells, log [concentration] μM 1.19): 100%
viability at 72 h, 30.9 µM ([2]; MRC-5 cells, log [concentration] μM 1.49): 91.9%
viability at 72 h, 63.1 µM ([2]; MRC-5 cells, log [concentration] μM 1.8): 79.9%
viability at 72 h, 126 µM ([2]; MRC-5 cells, log [concentration] μM 2.1): 61.4%
viability at 72 h, 251 µM ([2]; MRC-5 cells, log [concentration] μM 2.4): 28.2%
viability at 72 h, 501 µM ([2]; MRC-5 cells, log [concentration] μM 2.7): 20.4%
viability at 72 h, 0.977 µM ([2]; MRC-5 cells, log [concentration] μM -0.01): 93.5%
viability at 72 h, 0.49 µM ([2]; MRC-5 cells, log [concentration] μM -0.31): 100%
viability at 72 h, 0.245 µM ([2]; MRC-5 cells, log [concentration] μM -0.61): 100%
IC50 ([3]; Homo sapiens, MDA-MB-231, growth inhibitory): 3.89 ± 0.88 µM
Viability ([3]; log concentration μM 0.193959): 75.9862%
Viability ([3]; log concentration μM 0.49485): 65.9005%
Viability ([3]; log concentration μM 0.79588): 45.256%
Viability ([3]; log concentration μM 1.09691): 30.1241%
Viability ([3]; log concentration μM 1.69897): 14.974%
Viability ([3]; log concentration μM 2): 13.0697%
Viability ([3]; log concentration μM 2.30103): 16.4202%
Viability ([3]; log concentration μM -0.10735): 96.2538%
Viability ([3]; log concentration μM -0.40782): 101.482%
Viability ([3]; log concentration μM -0.70997): 100%
Viability ([3]; log concentration μM -1.00877): 100%
IC50 (MRC-5 cells): 132 ± 35.9 µM
IC50 in PARG-depleted cells relative to control cells (MDA-MB-231 PARG-KD cells): ~10 fold
fraction of PARG-KD cells responding to the PARGi (MDA-MB-231 PARG-KD cells): 50%
IC50 (MDA-MB-231 PARG-KD cells; Homo sapiens, MDA-MB-231, growth inhibitory, 72 h): 34.4 ± 13.3 µM
Viability (MDA-MB-231 PARG-KD cells; log concentration μM 0.193959, 72 h): 105.597%
Viability (MDA-MB-231 PARG-KD cells; log concentration μM 0.49485, 72 h): 101.727%
Viability (MDA-MB-231 PARG-KD cells; log concentration μM 0.79588, 72 h): 99.9152%
Viability (MDA-MB-231 PARG-KD cells; log concentration μM 1.09691, 72 h): 97.9571%
Viability (MDA-MB-231 PARG-KD cells; log concentration μM 2, 72 h): 52.7893%
Viability (MDA-MB-231 PARG-KD cells; log concentration μM 2.30103, 72 h): 51.5972%
Viability (MDA-MB-231 PARG-KD cells; log concentration μM -0.10735, 72 h): 104.639%
Viability (MDA-MB-231 PARG-KD cells; log concentration μM -0.40782, 72 h): 106.229%
Viability (MDA-MB-231 PARG-KD cells; log concentration μM -0.70997, 72 h): 102.262%
Viability (MDA-MB-231 PARG-KD cells; log concentration μM -1.00877, 72 h): 100%
IC50 (PC3 cells; with 7 Gy IR): 41.6 ± 3 µM
IC50 (PC3 cells; without IR): 33 ± 2.4 µM
change in thermal stability of PCNA control (PCNA in PC3 cells): no significant change in thermal stability
Band intensities, anti-PCNA (PCNA in PC3 cells; Temperature 4 °C): 100
Band intensities, anti-PCNA (PCNA in PC3 cells; Temperature 51 °C): 91.1484
Band intensities, anti-PCNA (PCNA in PC3 cells; Temperature 62 °C): 38.4112
Band intensities, anti-PCNA (PCNA in PC3 cells; Temperature 68 °C): 12.3183
Band intensities, anti-PCNA (PCNA in PC3 cells; Temperature 72 °C): 4.285
Band intensities, anti-PCNA (PCNA in PC3 cells; Temperature 77 °C): 3.2332
Band intensities, anti-PCNA (PCNA in PC3 cells; Temperature 85 °C): 4.145
stabilization of PARG proteins in cells (PARG in PC3 cells): 9 °C
Band intensities, anti-PARG (PARG in PC3 cells; Temperature 4 °C): 100
Band intensities, anti-PARG (PARG in PC3 cells; Temperature 51 °C): 93.0607
Band intensities, anti-PARG (PARG in PC3 cells; Temperature 62 °C): 68.3696
Band intensities, anti-PARG (PARG in PC3 cells; Temperature 68 °C): 57.8125
Band intensities, anti-PARG (PARG in PC3 cells; Temperature 72 °C): 44.7308
Band intensities, anti-PARG (PARG in PC3 cells; Temperature 77 °C): 28.3012
Band intensities, anti-PARG (PARG in PC3 cells; Temperature 85 °C): 16.0619
